Key:
BRM = BRM (Homo sapiens, UniProt P51531); experiment: ATPase catalytic activity assay (ADP-Glo), BRM; details: 30 nM BRM, 400 μM ATP; for IC50: BRM ATPase: IC50 (uM)
BRG-1 = BRG-1 (Homo sapiens, UniProt P51532); experiment: ATPase catalytic activity assay (ADP-Glo), BRG-1; details: for Emax: 1 h, read-out: BRG1 Max % Inhibition, ADP-Glo, 30 nM BRG-1, 400 μM ATP
BRG-1, sequence (P51532 whole entry): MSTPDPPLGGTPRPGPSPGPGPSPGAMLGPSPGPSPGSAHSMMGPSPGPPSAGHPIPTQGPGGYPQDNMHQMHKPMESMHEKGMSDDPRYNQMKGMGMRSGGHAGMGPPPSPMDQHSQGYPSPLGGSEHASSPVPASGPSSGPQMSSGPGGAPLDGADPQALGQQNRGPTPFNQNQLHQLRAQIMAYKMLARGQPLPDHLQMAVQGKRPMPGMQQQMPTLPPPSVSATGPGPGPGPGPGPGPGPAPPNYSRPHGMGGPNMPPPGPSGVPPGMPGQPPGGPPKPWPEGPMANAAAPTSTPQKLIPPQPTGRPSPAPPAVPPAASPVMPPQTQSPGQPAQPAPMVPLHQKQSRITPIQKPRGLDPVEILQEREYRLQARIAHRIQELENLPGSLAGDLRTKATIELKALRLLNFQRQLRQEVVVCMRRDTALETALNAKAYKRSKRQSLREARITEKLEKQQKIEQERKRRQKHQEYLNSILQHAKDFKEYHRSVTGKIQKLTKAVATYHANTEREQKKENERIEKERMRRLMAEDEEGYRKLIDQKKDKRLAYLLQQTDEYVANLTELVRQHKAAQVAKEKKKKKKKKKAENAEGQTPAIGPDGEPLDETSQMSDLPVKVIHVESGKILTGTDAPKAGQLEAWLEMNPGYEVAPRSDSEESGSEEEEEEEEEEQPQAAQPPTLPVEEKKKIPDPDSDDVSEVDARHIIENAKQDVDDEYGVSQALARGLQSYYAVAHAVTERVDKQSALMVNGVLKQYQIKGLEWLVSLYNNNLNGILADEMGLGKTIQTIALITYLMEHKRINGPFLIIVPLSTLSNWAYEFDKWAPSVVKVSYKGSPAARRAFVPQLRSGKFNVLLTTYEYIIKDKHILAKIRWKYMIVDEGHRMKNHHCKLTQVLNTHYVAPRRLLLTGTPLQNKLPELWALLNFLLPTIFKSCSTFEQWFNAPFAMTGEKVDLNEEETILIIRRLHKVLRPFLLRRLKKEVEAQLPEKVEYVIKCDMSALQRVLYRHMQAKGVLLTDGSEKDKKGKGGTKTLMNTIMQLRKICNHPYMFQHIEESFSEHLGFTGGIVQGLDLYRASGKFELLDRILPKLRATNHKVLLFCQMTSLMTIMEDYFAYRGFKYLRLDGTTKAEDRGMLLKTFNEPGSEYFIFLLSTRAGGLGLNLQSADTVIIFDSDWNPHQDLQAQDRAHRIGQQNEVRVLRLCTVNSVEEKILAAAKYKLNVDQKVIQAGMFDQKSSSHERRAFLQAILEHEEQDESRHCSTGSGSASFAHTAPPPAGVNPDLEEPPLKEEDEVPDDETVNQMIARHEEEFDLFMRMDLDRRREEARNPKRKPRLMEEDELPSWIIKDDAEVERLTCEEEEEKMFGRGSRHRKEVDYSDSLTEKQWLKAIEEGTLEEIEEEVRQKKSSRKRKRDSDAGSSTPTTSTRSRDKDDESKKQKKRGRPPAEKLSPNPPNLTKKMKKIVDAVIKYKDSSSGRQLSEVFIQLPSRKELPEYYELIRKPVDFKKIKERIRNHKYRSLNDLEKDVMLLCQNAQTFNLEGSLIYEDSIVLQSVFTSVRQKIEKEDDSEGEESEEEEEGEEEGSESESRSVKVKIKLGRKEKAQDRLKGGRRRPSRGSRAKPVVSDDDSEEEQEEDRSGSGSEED

BRM, sequence (P51531 whole entry): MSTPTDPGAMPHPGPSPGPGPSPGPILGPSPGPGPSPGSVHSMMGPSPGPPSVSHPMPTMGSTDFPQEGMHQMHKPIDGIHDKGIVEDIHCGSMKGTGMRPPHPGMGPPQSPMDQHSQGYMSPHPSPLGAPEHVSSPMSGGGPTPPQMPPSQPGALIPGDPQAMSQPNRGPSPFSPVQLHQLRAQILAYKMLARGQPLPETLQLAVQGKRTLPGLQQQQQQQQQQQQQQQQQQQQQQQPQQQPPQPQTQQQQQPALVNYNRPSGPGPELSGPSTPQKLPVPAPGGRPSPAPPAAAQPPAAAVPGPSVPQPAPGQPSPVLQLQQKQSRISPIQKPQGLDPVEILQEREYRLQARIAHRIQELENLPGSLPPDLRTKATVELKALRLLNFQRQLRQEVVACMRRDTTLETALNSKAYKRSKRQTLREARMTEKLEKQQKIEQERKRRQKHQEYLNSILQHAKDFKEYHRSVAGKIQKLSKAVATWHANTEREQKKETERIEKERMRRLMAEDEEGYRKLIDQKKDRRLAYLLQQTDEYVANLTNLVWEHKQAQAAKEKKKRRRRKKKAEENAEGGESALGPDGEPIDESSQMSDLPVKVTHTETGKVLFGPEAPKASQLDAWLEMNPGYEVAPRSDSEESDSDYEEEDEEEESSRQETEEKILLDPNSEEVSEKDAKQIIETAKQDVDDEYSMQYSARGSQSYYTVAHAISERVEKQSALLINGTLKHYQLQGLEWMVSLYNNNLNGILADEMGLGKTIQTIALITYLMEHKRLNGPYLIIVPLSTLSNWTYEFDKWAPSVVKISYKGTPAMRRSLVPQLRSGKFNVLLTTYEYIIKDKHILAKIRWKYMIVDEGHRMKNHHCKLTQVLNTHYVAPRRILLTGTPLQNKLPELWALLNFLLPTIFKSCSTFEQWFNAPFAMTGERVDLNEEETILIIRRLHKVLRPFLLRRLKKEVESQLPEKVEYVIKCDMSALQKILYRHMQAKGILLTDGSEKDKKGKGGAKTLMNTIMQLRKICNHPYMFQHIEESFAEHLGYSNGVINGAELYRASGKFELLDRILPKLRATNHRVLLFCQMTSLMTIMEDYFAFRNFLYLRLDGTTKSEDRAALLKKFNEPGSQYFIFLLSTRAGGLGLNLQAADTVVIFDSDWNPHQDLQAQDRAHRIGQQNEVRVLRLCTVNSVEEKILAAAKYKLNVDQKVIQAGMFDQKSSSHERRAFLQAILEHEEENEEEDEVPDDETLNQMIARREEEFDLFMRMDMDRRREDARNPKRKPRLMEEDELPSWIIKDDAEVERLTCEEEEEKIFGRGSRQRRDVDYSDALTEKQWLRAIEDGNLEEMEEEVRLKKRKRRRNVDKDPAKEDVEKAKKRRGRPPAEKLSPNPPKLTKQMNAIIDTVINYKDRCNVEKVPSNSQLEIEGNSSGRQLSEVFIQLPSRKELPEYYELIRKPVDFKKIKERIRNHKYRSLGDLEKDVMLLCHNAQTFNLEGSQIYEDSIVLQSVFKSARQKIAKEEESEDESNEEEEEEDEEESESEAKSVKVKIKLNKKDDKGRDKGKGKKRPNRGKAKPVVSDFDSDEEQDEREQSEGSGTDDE

Row | SMILES | BRM Max % Inhibition (BRM) [%] | IC50 (BRM) [µM] | IC50 (BRG-1) [nM] | Emax (BRG-1) [%]
1 | C[C@@]1(F)COCc2ncc(C(=O)NCc3cc4nc(-c5cncc(N6CCC6)n5)ccc4cn3)cc21 [Compound 395] | 92 | 0.1 to 0.5 | 500 to 1000 | 62
2 | C[C@@]1(F)COCc2ccc(C(=O)NCc3cc4nc(-c5cccc(C6(O)CCOC6)n5)ccc4cn3)cc21 (stereo partly shown) [Compound 249] | 97 | 0.1 to 0.5 | 500 to 1000 | 71
3 | Cc1nn(-c2ccc3cnc(CNC(=O)c4ccc5c(c4)[C@](C)(C#N)COC5)cc3n2)cc1F [Compound 433] | 96 | 0.1 to 0.5 | 500 to 1000 | 59
4 | C[C@@]1(C#N)COCc2ccc(C(=O)NCc3cc4nc(-c5cccc(C6(C(F)F)COC6)c5)ccc4cn3)cc21 [Compound 194] | 93 | 0.1 to 0.5 | 500 to 1000 | 60
5 | Cc1nn(C)cc1-c1ccc2cnc(CNC(=O)c3ccc4c(c3)[C@](C)(C#N)COC4)cc2n1 [Compound 509] | 93 | 0.1 to 0.5 | 500 to 1000 | 54
6 | C[C@@]1(C#N)COCc2ccc(C(=O)NCc3cc4nc(-c5cnn(-c6ccncc6)c5)ccc4cn3)cc21 [Compound 477] | 88 | 0.1 to 0.5 | > 1000 | 49
7 | C[C@@]1(C#N)COCc2ccc(C(=O)NCc3cc(C#Cc4cccc(C(F)F)c4)ccn3)cc21 [Compound 17] | 94 | 0.1 to 0.5 | > 1000 | 58
8 | C[C@@]1(C#N)COCc2ccc(C(=O)NCc3cc(/C=C(\F)c4ccccc4)ccn3)cc21 [Compound 29] | 98 | 0.1 to 0.5 | > 1000 | 69
9 | CNC(=O)c1cccc(-c2ccc3cnc(CNC(=O)c4ccc5c(c4)[C@](C)(C#N)COC5)cc3n2)c1F [Compound 460] | 98 | 0.1 to 0.5 | 500 to 1000 | 75
10 | CC(C)(O)C#Cc1cccc(-c2ccc3cnc(CNC(=O)c4ccc5c(c4)[C@](C)(C#N)COC5)cc3n2)n1 [Compound 170] | 96 | 0.1 to 0.5 | 500 to 1000 | 80
11 | C[C@@]1(C#N)COCc2ccc(C(=O)NCc3cc4nc(-c5ccccc5C(F)F)ccc4cn3)cc21 [Compound 521] | 85 | 0.1 to 0.5 | > 1000 | 34
12 | COc1cc(N2CCOCC2)ccc1-c1ccc2cnc(CNC(=O)c3ccc4c(c3)[C@](C)(C#N)COC4)cc2n1 [Compound 155] | 96 | 0.1 to 0.5 | 500 to 1000 | 67
13 | O=C(NCc1cc2nc(-c3ccccc3)ccc2cn1)c1ccc2c(c1)[C@@](F)(C(F)F)COC2 [Compound 525] | 97 | 0.1 to 0.5 | 500 to 1000 | 69
14 | C[C@@]1(C#N)COCc2ccc(C(=O)NCc3cc(N4CCc5ccccc5C4)cnn3)cc21 [Compound 75] | 97 | 0.1 to 0.5 | 500 to 1000 | 54
15 | C[C@@]1(C#N)COCc2ccc(C(=O)NCc3cc4nc(-n5cccn5)ccc4cn3)cc21 [Compound 473] | 96 | 0.1 to 0.5 | > 1000 | 72
16 | COC1(c2cccc(-c3ccc4cnc(CNC(=O)c5ccc6c(c5)[C@](C)(C#N)COC6)cc4n3)c2)COC1 [Compound 418] | 90 | 0.1 to 0.5 | > 1000 | 51
17 | C[C@@]1(F)COCc2ncc(C(=O)NCc3cc4nc(-c5ccccc5)ccc4cn3)cc21 [Compound 413] | 92 | 0.1 to 0.5 | 500 to 1000 | 51
18 | C[C@@]1(C#N)COCc2ccc(C(=O)NCc3cc4nc(-c5ccccc5OCCO)ccc4cn3)cc21 [Compound 431] | 86 | 0.1 to 0.5 | 500 to 1000 | 53
19 | C[C@@]1(C#N)COCc2ccc(C(=O)NCc3cc(OCc4ccc(C#N)cc4)ccn3)cc21 [Compound 64] | 87 | 0.1 to 0.5 | > 1000 | 36
20 | Cn1ccc2c(c1=O)CCN(c1ccnc(CNC(=O)c3ccc4c(c3)[C@](C)(C#N)COC4)c1)C2 [Compound 73] | 84 | 0.1 to 0.5 | > 1000 | 44
21 | CN(C)c1cccc(-c2ccc3nnc(CNC(=O)c4ccc5c(c4)[C@](C)(F)COC5)cc3n2)n1 [Compound 238] | 100 | < 0.1 | < 100 | 96
22 | C[C@@]1(F)COCc2ccc(C(=O)NCc3cc4cc(-c5cccc(N6CCC6)n5)cnc4cn3)cc21 [Compound 347] | 100 | < 0.1 | 100 to 500 | 79

Further lines, results first:

Row | BRM Max % Inhibition (BRM) [%] | IC50 (BRM) [µM] | IC50 (BRG-1) [nM] | Emax (BRG-1) [%] | SMILES
23 | 97 | < 0.1 | > 1000 | 86 | COc1cccc(/C=C/c2ccnc(CNC(=O)c3ccc4c(c3)[C@](C)(C#N)COC4)c2)c1 [Compound 38]
24 | 104 | < 0.1 | 100 to 500 | 95 | C[C@@]1(F)COCc2ccc(C(=O)NCc3cc4nc(-c5cccc(C6(O)CC6)n5)ccc4cn3)cc21 [Compound 271]
25 | 104 | < 0.1 | 100 to 500 | 97 | C[C@@]1(F)COCc2c(F)cc(C(=O)NCc3cc4cc(-c5cncc(N6CCC6)n5)ccc4cn3)cc21 [Compound 269]
26 | 96 | < 0.1 | 500 to 1000 | 77 | COc1nn(C)cc1-c1ccc2nnc(CNC(=O)c3ccc4c(c3)[C@](C)(F)COC4)cc2n1 [Compound 275]
27 | 99 | < 0.1 | 500 to 1000 | 86 | COc1nn(C(F)F)cc1-c1ccc2cnc(CNC(=O)c3ccc4c(c3)[C@](C)(C#N)COC4)cc2n1 [Compound 193]
28 | 97 | < 0.1 | 500 to 1000 | 82 | C[C@@]1(C#N)COCc2ccc(C(=O)NCc3cc4nc(-c5ccnc(C6(F)CC6)n5)ccc4cn3)cc21 [Compound 204]
29 | 97 | < 0.1 | 500 to 1000 | 85 | COc1cccc(-c2ccc3cnc(CNC(=O)c4ccc5c(c4)[C@](C)(C#N)COC5)cc3n2)c1 [Compound 91]
30 | 100 | < 0.1 | 100 to 500 | 94 | Cn1c(C(F)F)cc2c(-c3ccc4cnc(CNC(=O)c5ccc6c(c5)[C@](C)(C#N)COC6)cc4n3)cccc21 [Compound 139]
31 | 99 | < 0.1 | 100 to 500 | 93 | C[C@@]1(C#N)COCc2ncc(C(=O)NCc3cc4nc(-c5cccc(C6CC6)n5)ccc4nn3)cc21 [Compound 189]
32 | 98 | < 0.1 | 100 to 500 | 82 | C[C@@]1(F)COCc2ncc(C(=O)NCc3cc4nc(-c5ccnc(N6CCC6)n5)cnc4cn3)cc21 [Compound 183]
33 | 98 | < 0.1 | 100 to 500 | 100 | CN(C)c1cccc(-c2ccc3cnc(CNC(=O)c4ccc5c(c4)[C@](C)(F)COC5)cc3n2)n1 [Compound 248]
34 | 101 | < 0.1 | 100 to 500 | 94 | C[C@@]1(C#N)COCc2ccc(C(=O)NCc3cc4nc(-c5cncc(N6CC(F)C6)n5)ccc4cn3)cc21 [Compound 374]
35 | 100 | < 0.1 | 100 to 500 | 98 | O=C(NCc1cc2nc(-c3cncc(C4CC4)n3)ccc2cn1)c1cnc2c(c1)[C@](F)(C(F)F)COC2 [Compound 228]
36 | 98 | < 0.1 | 100 to 500 | 94 | C[C@@]1(C#N)COCc2ccc(C(=O)NCc3cc4nc(-c5cccc6c5ccn6C5CC5)ccc4cn3)cc21 [Compound 173]
37 | 98 | < 0.1 | 100 to 500 | 88 | C[C@@]1(C#N)COCc2ccc(C(=O)NCc3cc4cc(-n5cc(F)c(N6CCC6)n5)ccc4nn3)cc21 [Compound 142]
38 | 97 | < 0.1 | 500 to 1000 | 80 | C[C@@]1(C#N)COCc2ccc(C(=O)NCc3cc4cc(-c5cncc(C6CC6)n5)cnc4cn3)cc21 [Compound 342]
39 | 99 | < 0.1 | 100 to 500 | 91 | COc1cccc(-c2ccc3cnc(CNC(=O)c4ccc5c(c4)[C@](C)(C#N)COC5)cc3n2)n1 [Compound 492]
40 | 100 | < 0.1 | < 100 | 101 | O=C(NCc1cc2nc(-c3cncc(N4CCC4)n3)ccc2cn1)c1cc(F)c2c(c1)[C@](F)(C(F)F)COC2 [Compound 375]
41 | 100 | < 0.1 | 100 to 500 | 90 | O=C(NCc1cc2nc(-c3cncc(C4CC4)n3)ccc2cn1)c1cnc2c(c1)[C@@](F)(C(F)F)COC2 [Compound 229]
42 | 106 | < 0.1 | < 100 | 97 | C[C@H]1CN(c2nccc(-c3ccc4cnc(CNC(=O)c5ccc6c(c5)[C@](C)(C#N)COC6)cc4n3)n2)CCO1 [Compound 322]
43 | 100 | < 0.1 | 100 to 500 | 90 | COc1nn(C2COC2)cc1-c1ccc2cnc(CNC(=O)c3ccc4c(c3)[C@](C)(C#N)COC4)cc2n1 [Compound 236]

From patent publication US12441726B2, “Compounds and uses thereof” (Foghorn Therapeutics Inc., priority 2020, dated 2025)
